The results in this text go back to patent US20240409585A1, “MACROCYCLIC IMMUNOMODULATORS” (priority 2021, published 2024).

SMILES strings stand for the structures. Numbered stars: 1 amine (or outer) side, 2 acyl side, 3 side chain; on linkers, the order of the positions; unused ones are H or OH. Bridge positions count the residues as written; N and C are the ends. Square brackets hold non-standard residues; d marks the D form. Peptide text beside a SMILES is read from it. * marks the point of attachment. ξ: configuration not given here. X44 = COc1cc(F)cc(-c2ccc(C[C@H](N[*:1])C(=O)[*:2])cc2)c1; Phe(4-COOH) = N[C@@H](Cc1ccc(C(=O)O)cc1)C(=O)O; Bip = N[C@@H](Cc1ccc(-c2ccccc2)cc1)C(=O)O; Phe(3-Cl) = N[C@@H](Cc1cccc(Cl)c1)C(=O)O; Phe(2-Cl) = N[C@@H](Cc1ccccc1Cl)C(=O)O; Phe(3-Me) = Cc1cccc(C[C@H](N)C(=O)O)c1; Bta = N[C@@H](Cc1csc2ccccc12)C(=O)O; Val(3-OH) = CC(C)(O)[C@H](N)C(=O)O; 3Pal = N[C@@H](Cc1cccnc1)C(=O)O; 4Pal = N[C@@H](Cc1ccncc1)C(=O)O; Cha = N[C@@H](CC1CCCCC1)C(=O)O; Cit = NC(=O)NCCC[C@H](N)C(=O)O; Ile(3ξ) = CCC(C)[C@H](N)C(=O)O; Thr(3ξ) = CC(O)[C@H](N)C(=O)O; Carboxymethyl = O=C(O)C*; NMeA = CN[C@@H](C)C(=O)O; Nle = CCCC[C@H](N)C(=O)O; Orn = NCCC[C@H](N)C(=O)O; Pra = C#CC[C@H](N)C(=O)O; Dab = NCC[C@H](N)C(=O)O; Dap = NC[C@H](N)C(=O)O

As a reminder, the IC50 is the concentration needed to halve the response being measured.

The assay deals with T1, PE-labeled human PD-L1-Ig binding to Jurkat cell line over-expressing human PD-1 (Jurkat-PD-1) (Homo sapiens, UniProt Q15116).
T1 construct: expressed in transfected cells; host or cells: Jurkat
T1 sequence (Q15116 25-288): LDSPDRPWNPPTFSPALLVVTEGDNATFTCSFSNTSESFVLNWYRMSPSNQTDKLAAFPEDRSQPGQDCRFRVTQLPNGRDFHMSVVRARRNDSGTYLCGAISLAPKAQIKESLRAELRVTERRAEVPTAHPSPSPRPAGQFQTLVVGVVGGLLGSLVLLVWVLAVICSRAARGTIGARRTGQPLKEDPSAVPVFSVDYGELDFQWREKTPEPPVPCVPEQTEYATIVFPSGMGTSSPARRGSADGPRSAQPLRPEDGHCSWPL
The assay can be described thus: Jurkat-PD-1 Cell Binding High-Content Screening Assay (CBA): Method 1. Conditions: Jurkat-hPD-1 cells, PE-labeled PD-L1-Ig 20 nM final; read-out: Jurkat HPDL1 PD1 IC50 (uM) (Method 1).
For the compound `CC(C)C[C@@H]1NC(=O)[C@H](Cc2c[nH]c3ccccc23)NC(=O)[C@H](CC(=O)O)NC(=O)[C@H](Cc2ccccc2Cl)NC(=O)[C@H](Cc2ccccc2)NC(=O)CSC[C@@H](C(=O)N[C@@H](C)C(N)=O)NC(=O)[C@H](CO)NC(=O)[C@H](C(C)C)NC(=O)[C@H](CC(C)C)NC(=O)[C@H](CC(N)=O)NC(=O)[C@@H](C)NC(=O)[C@H](C)N(C)C(=O)[C@H](C(C)C)NC(=O)[C@H](Cc2ccc(-c3ccccc3)cc2)NC1=O` [Compound 1807] ({CH2CO}-F[Phe(2-Cl)]DWL[Bip]V[NMeA][dA]NLVSCA-NH2; thioether N-14), the concentration for half-maximal inhibition (IC50) is 0.24 µM.

With `CC(C)C[C@@H]1NC(=O)[C@H](CCCNC(=N)N)NC(=O)[C@@H](CC(C)C)NC(=O)[C@H](C)N(C)C(=O)[C@H](C(C)C)NC(=O)[C@H](Cc2ccc(-c3ccccc3)cc2)NC(=O)[C@H](C(C)C)NC(=O)[C@H](Cc2cccc(Cl)c2)NC(=O)[C@H](CC(=O)O)NC(=O)[C@H](Cc2ccc(O)cc2)NC(=O)[C@H](CC(N)=O)NC(=O)CSC[C@@H](C(=O)N[C@@H](C)C(N)=O)NC(=O)[C@H]([C@@H](C)O)NC(=O)[C@H](C(C)C)NC1=O` [Compound 1274] ({CH2CO}-NYD[Phe(3-Cl)]V[Bip]V[NMeA][dL]RLVTCA-NH2; thioether N-14), the IC50 amounted to 0.03 µM.

Consider `C#CC[C@H](NC(=O)[C@@H](C)NC(=O)[C@@H]1CSCC(=O)N[C@@H](Cc2ccc(OCC(=O)O)cc2)C(=O)N[C@@H](Cc2ccc(C(=O)O)cc2)C(=O)N[C@@H](CC(=O)O)C(=O)N[C@@H](Cc2c[nH]c3ccccc23)C(=O)N[C@@H](CC(C)C)C(=O)N[C@@H](Cc2ccc(-c3ccccc3)cc2)C(=O)N[C@@H](C(C)C)C(=O)N(C)[C@@H](C)C(=O)N[C@H](CC(C)C)C(=O)N[C@@H](CCN)C(=O)N[C@@H](CC2CCCCC2)C(=O)N[C@@H](C(C)(C)O)C(=O)N[C@@H](CO)C(=O)N1)C(N)=O` [Compound 1940] ({CH2CO}-Y(Carboxymethyl)[Phe(4-COOH)]DWL[Bip]V[NMeA][dL][Dab][Cha][Val(3-OH)]SC[dA][Pra]-NH2; thioether N-14), for which the IC50 stood at 0.02 µM.

On to `CC(C)C[C@@H]1NC(=O)[C@H](CCN)NC(=O)[C@H](Cc2csc3ccccc23)NC(=O)[C@H](C)N(C)C(=O)[C@H](CCC(=O)O)NC(=O)[C@H](Cc2ccc(-c3ccccc3)cc2)NC(=O)[C@H](C(C)C)NC(=O)[C@H](Cc2c[nH]c3ccccc23)NC(=O)[C@H](CC(=O)O)NC(=O)[C@H](Cc2ccc(O)cc2)NC(=O)[C@H](Cc2ccccc2)NC(=O)CSC[C@@H](C(=O)N[C@@H](C)C(N)=O)NC(=O)[C@H]([C@@H](C)O)NC(=O)[C@H](C(C)C)NC1=O` [Compound 1143] ({CH2CO}-FYDWV[Bip]E[NMeA][Bta][Dab]LVTCA-NH2; thioether N-14), for which the IC50 was 0.24 µM.

`CCC(C)[C@@H]1NC(=O)[C@H](Cc2ccc(-c3ccccc3)cc2)NC(=O)[C@H](C(C)C)NC(=O)[C@H](Cc2c[nH]c3ccccc23)NC(=O)[C@H](CC(=O)O)NC(=O)[C@H](Cc2ccc(O)cc2)NC(=O)[C@H](Cc2cccnc2)NC(=O)CSC[C@@H](C(=O)N[C@@H](C)C(N)=O)NC(=O)[C@H](C(C)O)NC(=O)[C@H](C(C)C)NC(=O)[C@H](CC2CCCCC2)NC(=O)[C@H](CCN)NC(=O)[C@@H](CC(C)C)NC(=O)[C@H](C)N(C)C1=O` (stereo partly drawn) [Compound 2052] ({CH2CO}-[3Pal]YDWV[Bip][Ile(3ξ)][NMeA][dL][Dab][Cha]V[Thr(3ξ)]CA-NH2; thioether N-14): the 50% inhibitory concentration (IC50) worked out at 0.02 µM.

For `CC(C)C[C@@H]1NC(=O)[C@H](CCCNC(=N)N)NC(=O)[C@@H](CC(C)C)NC(=O)[C@H](C)N(C)C(=O)[C@H](CCCNC(=N)N)NC(=O)[C@H](Cc2ccc(-c3ccccc3)cc2)NC(=O)[C@H](C(C)C)NC(=O)[C@H](Cc2c[nH]c3ccccc23)NC(=O)[C@H](CC(=O)O)NC(=O)[C@H](Cc2ccc(C(=O)O)cc2)NC(=O)[C@H](Cc2ccncc2)NC(=O)CSC[C@@H](C(=O)N[C@@H](C)C(N)=O)NC(=O)[C@H]([C@@H](C)O)NC(=O)[C@H](C(C)C)NC1=O` [Compound 1077] ({CH2CO}-[4Pal][Phe(4-COOH)]DWV[Bip]R[NMeA][dL]RLVTCA-NH2; thioether N-14), the IC50 turned out to be 0.05 µM.

In the case of `CCNC(=O)[C@H](CCN)NC(=O)[C@@H]1CSCC(=O)N[C@@H](Cc2ccncc2)C(=O)N[C@@H](Cc2ccc(OCC(=O)O)cc2)C(=O)N[C@@H](CC(=O)O)C(=O)N[C@@H](Cc2cccc(C)c2)C(=O)N[C@@H](Cc2ccc(OCC(=O)O)cc2)C(=O)N[C@@H](Cc2ccc(-c3ccccc3)cc2)C(=O)N[C@@H](Cc2ccc(OCC(=O)O)cc2)C(=O)N(C)[C@@H](C)C(=O)N[C@H](CC(C)C)C(=O)N[C@@H](CCN)C(=O)N[C@@H](CC2CCCCC2)C(=O)N[C@@H](C(C)C)C(=O)N[C@@H]([C@@H](C)O)C(=O)N1` [Compound 1858] ({CH2CO}-[4Pal]Y(Carboxymethyl)D[Phe(3-Me)]Y(Carboxymethyl)[Bip]Y(Carboxymethyl)[NMeA][dL][Dab][Cha]VTC[Dab]-NHEt; thioether N-14), the IC50 was determined as 0.01 µM.

`CCCC[C@@H]1NC(=O)[C@H](CCCNC(=N)N)NC(=O)[C@@H](CC(C)C)NC(=O)[C@H](C)N(C)C(=O)[C@H](C(C)C)NC(=O)[C@H](Cc2ccc(-c3ccccc3)cc2)NC(=O)[C@H](C(C)C)NC(=O)[C@H](Cc2c[nH]c3ccccc23)NC(=O)[C@H](CC(=O)O)NC(=O)[C@H](Cc2ccc(O)cc2)NC(=O)[C@H](Cc2ccccc2)NC(=O)CSC[C@@H](C(=O)N[C@@H](C)C(N)=O)NC(=O)[C@H]([C@@H](C)O)NC(=O)[C@H](C(C)C)NC1=O` [Compound 1502] ({CH2CO}-FYDWV[Bip]V[NMeA][dL]R[Nle]VTCA-NH2; thioether N-14): the IC50 came to 0.1 µM.

For the compound `CCNC(=O)[C@H](CCN)NC(=O)[C@@H]1CSCC(=O)N[C@@H](Cc2cccnc2)C(=O)N[C@@H](Cc2ccc(OCC(=O)O)cc2)C(=O)N[C@@H](CC(=O)O)C(=O)N[C@@H](Cc2cccc(C)c2)C(=O)N[C@@H](Cc2ccc(OCC(=O)O)cc2)C(=O)N[C@@H](Cc2ccc(-c3ccccc3)cc2)C(=O)N[C@@H](Cc2ccc(OCC(=O)O)cc2)C(=O)N(C)[C@@H](C)C(=O)N[C@H](CC(C)C)C(=O)N[C@@H](CCN)C(=O)N[C@@H](CC2CCCCC2)C(=O)N[C@@H](C(C)C)C(=O)N[C@@H]([C@@H](C)O)C(=O)N1` [Compound 1856] ({CH2CO}-[3Pal]Y(Carboxymethyl)D[Phe(3-Me)]Y(Carboxymethyl)[Bip]Y(Carboxymethyl)[NMeA][dL][Dab][Cha]VTC[Dab]-NHEt; thioether N-14), the IC50 is 0.02 µM.

Consider `CC(C)C[C@@H]1NC(=O)[C@H](CCCN)NC(=O)[C@@H](CC(C)C)NC(=O)[C@H](C)N(C)C(=O)[C@H](CCC(=O)O)NC(=O)[C@H](Cc2ccc(-c3ccccc3)cc2)NC(=O)[C@H](C(C)C)NC(=O)[C@H](Cc2c[nH]c3ccccc23)NC(=O)[C@H](CC(=O)O)NC(=O)[C@H](Cc2ccc(O)cc2)NC(=O)[C@H](CC(N)=O)NC(=O)CSC[C@@H](C(=O)N[C@@H](C)C(N)=O)NC(=O)[C@H]([C@@H](C)O)NC(=O)[C@H](C(C)C)NC1=O` [Compound 1239] ({CH2CO}-NYDWV[Bip]E[NMeA][dL][Orn]LVTCA-NH2; thioether N-14), for which the concentration for half-maximal inhibition (IC50) was 0.08 µM.

In the case of `COc1cc(F)cc(-c2ccc(C[C@@H]3NC(=O)[C@H](C(C)C)NC(=O)[C@H](Cc4c[nH]c5ccccc45)NC(=O)[C@H](CC(=O)O)NC(=O)[C@H](Cc4ccc(O)cc4)NC(=O)[C@H](CC(N)=O)NC(=O)CSC[C@@H](C(=O)N[C@@H](C)C(N)=O)NC(=O)[C@H]([C@@H](C)O)NC(=O)[C@H](C(C)C)NC(=O)[C@H](CC(C)C)NC(=O)[C@H](CCN)NC(=O)[C@@H](CC(C)C)NC(=O)[C@H](C)N(C)C(=O)[C@H](CCCNC(=N)N)NC3=O)cc2)c1` [Compound 1223] ({CH2CO}-NYDWV[X44]R[NMeA][dL][Dab]LVTCA-NH2; thioether N-14), the IC50 came to 0.32 µM.

As for `Cc1cccc(C[C@@H]2NC(=O)[C@H](CC(=O)O)NC(=O)[C@H](Cc3ccc(OCC(=O)O)cc3)NC(=O)[C@H](Cc3ccc(OCC(=O)O)cc3)NC(=O)CSC[C@@H](C(N)=O)NC(=O)[C@H](CC(N)=O)NC(=O)[C@H](C(C)C)NC(=O)[C@H](CC3CCCCC3)NC(=O)[C@H](CCN)NC(=O)[C@@H](CC(C)C)NC(=O)[C@H](C)N(C)C(=O)[C@H](Cc3ccc(OCC(=O)O)cc3)NC(=O)[C@H](Cc3ccc(-c4ccccc4)cc3)NC(=O)[C@H](Cc3ccc(OCC(=O)O)cc3)NC2=O)c1` [Compound 1653] ({CH2CO}-Y(Carboxymethyl)Y(Carboxymethyl)D[Phe(3-Me)]Y(Carboxymethyl)[Bip]Y(Carboxymethyl)[NMeA][dL][Dab][Cha]VNC-NH2; thioether N-14), the half-maximal inhibitory concentration (IC50) was 0.03 µM.

With `CC(C)C[C@@H]1NC(=O)[C@H](CCCNC(=N)N)NC(=O)[C@@H](Cc2ccccc2)NC(=O)[C@H](C)N(C)C(=O)[C@H](CCCNC(=N)N)NC(=O)[C@H](Cc2ccc(-c3ccccc3)cc2)NC(=O)[C@H](C(C)C)NC(=O)[C@H](Cc2c[nH]c3ccccc23)NC(=O)[C@H](CC(=O)O)NC(=O)[C@H](Cc2ccc(O)cc2)NC(=O)[C@H](CC(N)=O)NC(=O)CSC[C@@H](C(=O)N[C@@H](C)C(N)=O)NC(=O)[C@H]([C@@H](C)O)NC(=O)[C@H](C(C)C)NC1=O` [Compound 1153] ({CH2CO}-NYDWV[Bip]R[NMeA][dF]RLVTCA-NH2; thioether N-14), the IC50 came to 0.19 µM.

For the compound `CC(C)C[C@@H]1NC(=O)[C@H](CCN)NC(=O)[C@@H](CC(C)C)NC(=O)[C@H](C)N(C)C(=O)[C@H](CCCNC(N)=O)NC(=O)[C@H](Cc2ccc(-c3ccccc3)cc2)NC(=O)[C@H](C(C)C)NC(=O)[C@H](Cc2c[nH]c3ccccc23)NC(=O)[C@H](CC(=O)O)NC(=O)[C@H](Cc2ccncc2)NC(=O)[C@H](CN)NC(=O)CSC[C@@H](C(=O)N[C@@H](C)C(N)=O)NC(=O)[C@H]([C@@H](C)O)NC(=O)[C@H](C(C)C)NC1=O` [Compound 1545] ({CH2CO}-[Dap][4Pal]DWV[Bip][Cit][NMeA][dL][Dab]LVTCA-NH2; thioether N-14), the IC50 was 0.04 µM.
